Data on 30 compounds can be found in publication PMC3579312 (Journal of Medicinal Chemistry, 2013).

Data set [1] has as its system Trypanosoma brucei brucei bloodstream-form (strain 427). The experiment in a line: Trypanocidal activity, Alamar Blue viability, 72 h. The format is cell-based. To be noted: for Selectivity Index: HeLa EC50 versus T. brucei EC50; for combined trypanocidal action of 22s with nifurtimox: Figure 4.
Another data set deals with 22s-resistant T. brucei. Kind of data set: Trypanocidal activity against cloned 22s-resistant cell line. The format is cell-based, Trypanosoma brucei. To be noted: 22s in 22s-resistant cells versus nifurtimox in wild-type.
Data set [2] relates to human African trypanosomiasis. The following applies: cited from earlier work.
The test system of data set [3] is nifurtimox-resistant T. brucei. Kind of data set: Trypanocidal activity against cloned nifurtimox-resistant cell line. The format is cell-based, Trypanosoma brucei.
A further data set has as its system Chagas’ disease. To be noted: patients with Chagas’ disease; cited from earlier work.

“Also recorded” adds a separate entry of the source.

On to `CCOC(=O)c1cc(CC)sc1NC(=O)c1ccc([N+](=O)[O-])o1` [Compound 12a, Ethyl 5-Ethyl-2-(5-nitrofuran-2-carboxamido)thiophene-3-carboxylate], for which the “Selectivity Index” value in data set [1] was over 640.

For `CCCCc1cc(C(=O)OCC)c(NC(=O)c2ccc([N+](=O)[O-])o2)s1` [Compound 12b], the “Selectivity Index” value in data set [1] is recorded as over 160.

Turning to `CCCCOC(=O)c1cc(CC)sc1NC(=O)c1ccc([N+](=O)[O-])o1` [Compound 12d], in data set [1], the “Selectivity Index” value is listed as over 625.

Regarding `CCNC(=O)c1cc(CC)sc1NC(=O)c1ccc([N+](=O)[O-])o1` [Compound 12e], in data set [1], the “Selectivity Index” value is listed as over 136.

In the case of `CCCCNC(=O)c1cc(CC)sc1NC(=O)c1ccc([N+](=O)[O-])o1` [Compound 12f], the “Selectivity Index” value in data set [1] is recorded as over 60.

Consider `CCc1cc(C(N)=O)c(NC(=O)c2ccc([N+](=O)[O-])o2)s1` [Compound 12g, N-(3-Carbamoyl-5-ethylthiophen-2-yl)-5-nitrofuran-2-carboxamide], for which the “Selectivity Index” value in data set [1] is over 1155.

As to `CCc1cc(C(=O)NCCO)c(NC(=O)c2ccc([N+](=O)[O-])o2)s1` [Compound 12h], the “Selectivity Index” value in data set [1] is given as over 253.

Take `O=C(Nc1cccs1)c1ccc([N+](=O)[O-])o1` [Compound 12j]: the “Selectivity Index” value in data set [1] is recorded as over 322.

Regarding `CCOC(=O)c1ccsc1NC(=O)c1ccc([N+](=O)[O-])o1` [Compound 12k], the “Selectivity Index” value in data set [1] is recorded as over 278.

Turning to `CCc1cc(C(N)=O)c(N)s1` [Compound 13g], in data set [1], the “activity against T. brucei (in words)” value was “inactive”.

`CCOC(=O)c1cc(CC)sc1NC(=O)c1ccco1` [Compound 18a]: in data set [1], the “activity against T. brucei (in words)” value is reported as “no activity”.

On to `COC(=O)c1ccc([N+](=O)[O-])o1` [Compound 19], for which the “activity against T. brucei (in words)” value in data set [1] is “inactive”.

With `CCc1cc(C(N)=O)c(NC(=O)c2cccc([N+](=O)[O-])c2)s1` [Compound 20b], the “Selectivity Index” value in data set [1] is given as over 8.

For the compound `O=C(Nc1ccccc1)c1ccc([N+](=O)[O-])o1` [Compound 22b], the “Selectivity Index” value in data set [1] is listed as over 710.

Consider `O=C(Nc1cccc(Br)c1)c1ccc([N+](=O)[O-])o1` [Compound 22f], for which the “Selectivity Index” value in data set [1] is listed as over 192.

As to `COc1cccc(NC(=O)c2ccc([N+](=O)[O-])o2)c1` [Compound 22g], the “Selectivity Index” value in data set [1] is reported as over 345.

As for `O=C(Nc1ccc(C(F)(F)F)cc1)c1ccc([N+](=O)[O-])o1` [Compound 22h, 5-Nitro-N-(4-(trifluoromethyl)phenyl)furan-2-carboxamide], the “Selectivity Index” value in data set [1] was over 158.

For the compound `O=C(Nc1ccc(Cl)cc1)c1ccc([N+](=O)[O-])o1` [Compound 22i], the “Selectivity Index” value in data set [1] is given as over 48.

For the compound `COC(=O)c1ccc(NC(=O)c2ccc([N+](=O)[O-])o2)cc1` [Compound 22j], the “Selectivity Index” value in data set [1] is over 29.

As to `COc1ccc(NC(=O)c2ccc([N+](=O)[O-])o2)cc1` [Compound 22k], in data set [1], the “Selectivity Index” value is recorded as over 261.

Regarding `O=C(NCc1cccc(C(F)(F)F)c1)c1ccc([N+](=O)[O-])o1` [Compound 22l, 5-nitro-N-(3-(trifluoromethyl)benzyl)furan-2-carboxamide], the “Selectivity Index” value in data set [1] is over 1149.

Consider `COc1cc(NC(=O)c2ccc([N+](=O)[O-])o2)cc(C(F)(F)F)c1` [Compound 22m], for which the “Selectivity Index” value in data set [1] is over 752.

On to `O=C(Nc1cc(C(F)(F)F)cc(C(F)(F)F)c1)c1ccc([N+](=O)[O-])o1` [Compound 22n], for which, in data set [1], the “Selectivity Index” value is listed as over 78.

As to `O=C(Nc1ccc(O)cc1)c1ccc([N+](=O)[O-])o1` [Compound 22p], the “Selectivity Index” value in data set [1] is recorded as over 50.

For `O=C(Nc1ccc(O)c(C(F)(F)F)c1)c1ccc([N+](=O)[O-])o1` [Compound 22r], in data set [1], the “Selectivity Index” value is on record as over 9.

In the case of `C=CCOc1ccc(NC(=O)c2ccc([N+](=O)[O-])o2)cc1C(F)(F)F` [Compound 22s, N-(4-(Allyloxy)-3-(trifluoromethyl)phenyl)-5-nitrofuran-2-carboxamide], the “Selectivity Index” value in data set [1] is given as over 8330. Also, the “combined trypanocidal action of 22s with nifurtimox” value in data set [1] (nifurtimox <700 nM, EC50 of 22s) was “synergy can be observed; also recorded: synergistic relationship”; in data set [1] (nifurtimox above 700 nM), “distinct lack of synergy”. Further, the “potency in 22s-resistant cells relative to nifurtimox in wild-type T. brucei” value with 22s-resistant T. brucei was about 70 times.

Consider `C=CCOc1ccc(N(CC=C)C(=O)c2ccc([N+](=O)[O-])o2)cc1C(F)(F)F` [Compound 22t], for which, in data set [1], the “Selectivity Index” value is reported as over 9.

Take `COc1ccc(NC(=O)c2ccc([N+](=O)[O-])o2)cc1C` [Compound 22v]: in data set [1], the “Selectivity Index” value is on record as over 525.

As to `Nc1nc(N)nc(Nc2ccc([As]3SCC(CO)S3)cc2)n1` (stereo not shown) [Melarsoprol (3), melarsoprol], the “death, share of cases” value in data set [2] (HAT patients) is recorded as about 6%. Besides, the treatment failure rate in data set [2] (in certain areas) was at most 30%.

On to `CC1CS(=O)(=O)CCN1/N=C/c1ccc([N+](=O)[O-])o1` (stereo not shown) [Nifurtimox (5), Nifurtimox], for which the EC50 in data set [1] (read-out: T. brucei EC50, wild-type bloodstream form, 72 h) is 2.1 ± 0.2 µM; in data set [3] (Trypanosoma brucei, read-out: EC50, nifurtimox resistant cells), 20.9 ± 1.7 µM. In addition, the “fold increase in EC50 (less sensitive) versus wild-type cells” value in data set [3] (nifurtimox-resistant versus wild-type) is 9–10 fold. Besides, in the data set on Chagas’ disease, the “treatment cessation due to adverse side effects, share of patients” value was “over 30%”.

As a reminder, the EC50 is the concentration at which the effect is half-maximal.
